Earlier results in patent US20210213132A1, “FORMULATIONS OF SN-38 WITH POLY(AMINO ACID) BLOCK POLYMERS” (Tyndall Formulation Services, LLC, priority 2020, published 2021).
Read-outs that look alike come from different tables or passages of the source.

Experiments:
[1] = target: T1, topoisomerase I (Homo sapiens, UniProt P11387); details: SN-38 versus irinotecan
T1 sequence (P11387 1-765): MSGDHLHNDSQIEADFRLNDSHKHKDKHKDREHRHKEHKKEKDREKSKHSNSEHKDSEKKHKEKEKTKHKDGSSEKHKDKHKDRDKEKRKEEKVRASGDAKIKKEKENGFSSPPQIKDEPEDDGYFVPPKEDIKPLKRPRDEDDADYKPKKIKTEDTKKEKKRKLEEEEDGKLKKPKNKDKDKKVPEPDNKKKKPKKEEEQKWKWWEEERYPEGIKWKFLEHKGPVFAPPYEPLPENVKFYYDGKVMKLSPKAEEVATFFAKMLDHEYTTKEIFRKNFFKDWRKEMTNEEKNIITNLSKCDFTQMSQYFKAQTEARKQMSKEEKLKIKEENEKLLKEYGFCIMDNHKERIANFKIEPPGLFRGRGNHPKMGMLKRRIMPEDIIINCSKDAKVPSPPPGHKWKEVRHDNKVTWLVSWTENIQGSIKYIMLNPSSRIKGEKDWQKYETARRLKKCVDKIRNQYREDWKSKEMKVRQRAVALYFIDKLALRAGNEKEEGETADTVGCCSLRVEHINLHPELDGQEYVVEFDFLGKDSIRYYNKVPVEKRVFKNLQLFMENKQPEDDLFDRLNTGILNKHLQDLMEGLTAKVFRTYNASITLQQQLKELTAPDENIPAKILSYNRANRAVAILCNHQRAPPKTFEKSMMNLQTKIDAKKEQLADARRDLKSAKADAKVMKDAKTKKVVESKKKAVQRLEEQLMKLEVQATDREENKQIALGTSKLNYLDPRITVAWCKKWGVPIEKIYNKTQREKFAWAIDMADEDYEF

[2] = tested on: metastatic colorectal cancer patients; details: patients treated with irinotecan
[3] = tested on: carboxylesterases, specifically CES1 and CES2

| Percentage of patients experiencing asthenia ([2]; UGT1A1 *1/*1 genotype) | Percentage of patients experiencing diarrhea ([2]; UGT1A1 *1/*1 genotype) | Percentage of patients experiencing neutropenia ([2]; UGT1A1 *1/*1 genotype) | Percentage of patients experiencing asthenia ([2]; UGT1A1 *1/*28 genotype) | Percentage of patients experiencing diarrhea ([2]; UGT1A1 *1/*28 genotype) | Percentage of patients experiencing neutropenia ([2]; UGT1A1 *1/*28 genotype) | Percentage of patients experiencing asthenia ([2]; UGT1A1 *28/*28 genotype) | Percentage of patients experiencing diarrhea ([2]; UGT1A1 *28/*28 genotype) | Percentage of patients experiencing neutropenia ([2]; UGT1A1 *28/*28 genotype) | Structure (SMILES) | Potency relative to irinotecan [1] | Solubility in aqueous media | Affinity of the carboxylesterases for irinotecan [3] |
| --- | --- | --- | --- | --- | --- | --- | --- | --- | --- | --- | --- | --- |
| – | – | – | – | – | – | – | – | – | CCc1c2c(nc3ccc(O)cc13)-c1cc3c(c(=O)n1C2)COC(=O)[C@]3(O)CC [SN-38] | 100 to 1000 fold | extremely insoluble | – |
| 25% | 17% | 15% | 38% | 33% | 27% | 70% | 70% | 40% | CCc1c2c(nc3ccc(OC(=O)N4CCC(N5CCCCC5)CC4)cc13)-c1cc3c(c(=O)n1C2)COC(=O)[C@]3(O)CC [Irinotecan] | – | – | low |
